Measured values: patent US6479435B1, “Diaryl ethers and processes for their preparation and herbicidal and desiccant compositions containing them” (ISK Americas Incorporated, priority 1997, dated 2002)

How the values were obtained:
Format in all cases: in vivo
[1] = test system: green foxtail (Setaria viridis, SETVI); assay: Pre-emerge greenhouse herbicide test, phytotoxicity rating; details: Setaria viridis, pre-emergence, 336 h, 14 days after application, rating scale 0-100; for pest or weed control at 125 g/ha: Rate 125 g al/ha; for pest or weed control at 500 g/ha: Rate 500 g al/ha
Procedure, shortened: (§1)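 Seeds sown in sandy loam one day before track-sprayer application of acetone solutions at 125–1000 g ai/ha (187 l/ha), then surface-watered to incorporate and bottom-watered. Injury scored visually at 14 days on a 0–100 scale (0 no damage, 100 complete death).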

[2] = test system: barnyardgrass (Echinochloa crusgalli, ECHCG); assay: as above; details: Echinochloa crus-galli, pre-emergence, 336 h, 14 days after application, rating scale 0-100; for pest or weed control at 125 g/ha: Rate 125 g al/ha; for pest or weed control at 500 g/ha: Rate 500 g al/ha
Procedure, shortened: as §1

[3] = test system: redroot pigweed (Amaranthus retroflexus, AMARE); assay: as above; details: Amaranthus retroflexus, pre-emergence, 336 h, 14 days after application, rating scale 0-100; for pest or weed control at 125 g/ha: Rate 125 g al/ha; for pest or weed control at 500 g/ha: Rate 500 g al/ha
Procedure, shortened: as §1

[4] = test system: sicklepod (Cassia obtusifolia, CASOB); assay: as above; details: Senna obtusifolia, pre-emergence, 336 h, 14 days after application, rating scale 0-100; for pest or weed control at 125 g/ha: Rate 125 g al/ha; for pest or weed control at 500 g/ha: Rate 500 g al/ha
Procedure, shortened: as §1

[5] = test system: ivyleaf morningglory (Ipomoea hederacea, IPOHE); assay: as above; details: Ipomoea, pre-emergence, 336 h, 14 days after application, rating scale 0-100; for pest or weed control at 125 g/ha: Rate 125 g al/ha; for pest or weed control at 500 g/ha: Rate 500 g al/ha
Procedure, shortened: as §1

[6] = test system: Johnsongrass (Sorghum halepense, SORHA); assay: as above; details: Sorghum halepense, pre-emergence, 336 h, 14 days after application, rating scale 0-100; for pest or weed control at 125 g/ha: Rate 125 g al/ha; for pest or weed control at 500 g/ha: Rate 500 g al/ha
Procedure, shortened: as §1

[7] = test system: green foxtail (Setaria viridis, SETVI); assay: Post-emerge greenhouse herbicide test, phytotoxicity rating; details: Setaria viridis, post-emergence, 336 h, 14 days after application, scale 0-100; for pest or weed control at 63 g/ha: rate 63 g ai/ha; for pest or weed control at 500 g/ha: rate 500 g ai/ha
Procedure, shortened: (§2)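 Plants at the 2-3 leaf stage, sown 8-21 days earlier, were track-sprayed post-emergence with compound in acetone plus 0.25% v/v non-ionic surfactant at 63-1000 g ai/ha (187 l/ha). Damage was rated at 14 days on a 0-100 scale (0 none, 100 all plants dead), for both crop injury and weed control.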

[8] = test system: barnyardgrass (Echinochloa crusgalli, ECHCG); assay: as above; details: Echinochloa crus-galli, post-emergence, 336 h, 14 days after application, scale 0-100; for pest or weed control at 63 g/ha: rate 63 g ai/ha; for pest or weed control at 500 g/ha: rate 500 g ai/ha
Procedure, shortened: as §2

[9] = test system: lambsquarters (Chenopodium album, CHEAL); assay: as above; details: Chenopodium album, post-emergence, 336 h, 14 days after application, scale 0-100; for pest or weed control at 63 g/ha: rate 63 g ai/ha; for pest or weed control at 500 g/ha: rate 500 g ai/ha
Procedure, shortened: as §2

[10] = test system: velvetleaf (Abutilon theophrasti, ABUTH); assay: as above; details: Abutilon theophrasti, post-emergence, 336 h, 14 days after application, scale 0-100; for pest or weed control at 63 g/ha: rate 63 g ai/ha; for pest or weed control at 500 g/ha: rate 500 g ai/ha
Procedure, shortened: as §2

[11] = test system: redroot pigweed (Amaranthus retroflexus, AMARE); assay: as above; details: Amaranthus retroflexus, post-emergence, 336 h, 14 days after application, scale 0-100; for pest or weed control at 63 g/ha: rate 63 g ai/ha; for pest or weed control at 500 g/ha: rate 500 g ai/ha
Procedure, shortened: as §2

[12] = test system: sicklepod (Cassia obtusifolia, CASOB); assay: as above; details: Senna obtusifolia, post-emergence, 336 h, 14 days after application, scale 0-100; for pest or weed control at 63 g/ha: rate 63 g ai/ha; for pest or weed control at 500 g/ha: rate 500 g ai/ha
Procedure, shortened: as §2

[13] = test system: large crabgrass (Digitaria sanguinalis, DIGSA); assay: as above; details: Digitaria sanguinalis, post-emergence, 336 h, 14 days after application, scale 0-100; for pest or weed control at 63 g/ha: rate 63 g ai/ha; for pest or weed control at 500 g/ha: rate 500 g ai/ha
Procedure, shortened: as §2

[14] = test system: ivyleaf morningglory (Ipomoea hederacea, IPOHE); assay: as above; details: Ipomoea, post-emergence, 336 h, 14 days after application, scale 0-100; for pest or weed control at 63 g/ha: rate 63 g ai/ha; for pest or weed control at 500 g/ha: rate 500 g ai/ha
Procedure, shortened: as §2

[15] = test system: Johnsongrass (Sorghum halepense, SORHA); assay: as above; details: Sorghum halepense, post-emergence, 336 h, 14 days after application, scale 0-100; for pest or weed control at 63 g/ha: rate 63 g ai/ha; for pest or weed control at 500 g/ha: rate 500 g ai/ha
Procedure, shortened: as §2

SMILES	pest or weed control at 125 g/ha [1] [%]	pest or weed control at 500 g/ha [1] [%]	pest or weed control at 125 g/ha [2] [%]	pest or weed control at 500 g/ha [2] [%]	pest or weed control at 125 g/ha [3] [%]	pest or weed control at 500 g/ha [3] [%]	pest or weed control at 125 g/ha [4] [%]	pest or weed control at 500 g/ha [4] [%]	pest or weed control at 125 g/ha [5] [%]	pest or weed control at 500 g/ha [5] [%]	pest or weed control at 125 g/ha [6] [%]	pest or weed control at 500 g/ha [6] [%]	pest or weed control at 63 g/ha [7] [%]	pest or weed control at 500 g/ha [7] [%]	pest or weed control at 63 g/ha [8] [%]	pest or weed control at 500 g/ha [8] [%]	pest or weed control at 63 g/ha [9] [%]	pest or weed control at 500 g/ha [9] [%]	pest or weed control at 63 g/ha [10] [%]	pest or weed control at 500 g/ha [10] [%]	also measured
Nn1c(C(F)(F)F)cc(=O)n(-c2cc(Oc3nccc(Cl)n3)c(Cl)cc2F)c1=O [Compound 9-17, 1-Amino-3-[4-chloro-2-fluoro-5-(4-chloro-2-pyrimidyloxy)phenyl]-6-trifluoromethyl-1,2,3,4-tetrahydropyrimidine-2,4-dione]	90	100	20	100	100	100	20	70	20	100	30	90	10	10	0	60	80	90	100	100	pest or weed control at 63 g/ha [11]: 95%; pest or weed control at 500 g/ha [11]: 95%; pest or weed control at 63 g/ha [12]: 0%; pest or weed control at 500 g/ha [12]: 0%; pest or weed control at 63 g/ha [13]: 10%; pest or weed control at 500 g/ha [13]: 10%; pest or weed control at 63 g/ha [14]: 100%; pest or weed control at 500 g/ha [14]: 95%; pest or weed control at 63 g/ha [15]: 0%; pest or weed control at 500 g/ha [15]: 80%
Nn1c(C(F)(F)F)cc(=O)n(-c2cc(Oc3cccc(Cl)n3)c(Cl)cc2F)c1=O [Compound 9-5, 1-Amino-3-[4-chloro-2-fluoro-5-(6-chloro-2-pyridyloxy)phenyl]-6-trifluoromethyl-1,2,3,4-tetrahydropyrimidine-2,4-dione]	100	100	90	100	100	100	10	50	70	50	95	100	30	90	20	100	90	100	90	100	pest or weed control at 63 g/ha [11]: 100%; pest or weed control at 500 g/ha [11]: 100%; pest or weed control at 63 g/ha [12]: 100%; pest or weed control at 500 g/ha [12]: 100%; pest or weed control at 63 g/ha [13]: 0%; pest or weed control at 500 g/ha [13]: 80%; pest or weed control at 63 g/ha [14]: 100%; pest or weed control at 500 g/ha [14]: 90%; pest or weed control at 63 g/ha [15]: 50%; pest or weed control at 500 g/ha [15]: 100%
Nn1c(C(F)(F)F)cc(=O)n(-c2cc(Oc3ccc([N+](=O)[O-])cn3)c(Cl)cc2F)c1=O [Compound 9-11, 1-Amino-3-[4-chloro-2-fluoro-5-(5-nitro-2-pyridyloxy)phenyl]-6-trifluoromethyl-1,2,3,4-tetrahydropyrimidine-2,4-dione]	70	100	10	80	100	100	10	20	10	100	20	90	20	40	0	50	80	100	100	100	pest or weed control at 63 g/ha [11]: 100%; pest or weed control at 500 g/ha [11]: 100%; pest or weed control at 63 g/ha [12]: 30%; pest or weed control at 500 g/ha [12]: 80%; pest or weed control at 63 g/ha [13]: 40%; pest or weed control at 500 g/ha [13]: 80%; pest or weed control at 63 g/ha [14]: 100%; pest or weed control at 500 g/ha [14]: 100%; pest or weed control at 63 g/ha [15]: 20%; pest or weed control at 500 g/ha [15]: 80%
Nn1c(C(F)(F)F)cc(=O)n(-c2cc(Oc3ncccc3C(F)(F)F)c(Cl)cc2F)c1=O [Compound 9-7, 1-Amino-3-[4-chloro-2-fluoro-5-(3-trifluoromethyl-2-pyridyloxy)phenyl]-6-trifluoromethyl-1,2,3,4-tetrahydropyrimidine-2,4-dione]	100	100	90	100	100	100	40	100	70	100	90	100	40	70	60	70	100	100	100	100	pest or weed control at 63 g/ha [11]: 100%; pest or weed control at 500 g/ha [11]: 100%; pest or weed control at 63 g/ha [12]: 90%; pest or weed control at 500 g/ha [12]: 90%; pest or weed control at 63 g/ha [13]: 10%; pest or weed control at 500 g/ha [13]: 30%; pest or weed control at 63 g/ha [14]: 100%; pest or weed control at 500 g/ha [14]: 100%; pest or weed control at 63 g/ha [15]: 80%; pest or weed control at 500 g/ha [15]: 90%
